Assay results reported in the supplement of paper PMC8612539.
Converted amounts (≈) assume the structure as drawn.

Test system: Escherichia coli
Assay: minimum inhibitory concentration (MIC)
Protocol: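 Broth microdilution MIC (Sensititre BOPO7F bovine plate, CLSI methods) of 19 antimicrobials against field isolates of P. multocida, M. haemolytica, H. somni (deep nasopharyngeal swabs) and E. coli, Enterococcus spp. (rectal swabs) from weaned dairy heifers. Incubation 16-24 h at 35 C. MIC is the lowest concentration preventing visible growth. Values with <= or > lie at the tested range limits. Trimethoprim-sulfamethoxazole is given as the trimethoprim component of a 1:19 mixture.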

C=C[C@]1(C)C[C@@H](OC(=O)CSCCN(CC)CC)[C@]2(C)[C@H](C)CC[C@]3(CCC(=O)[C@H]32)[C@@H](C)[C@@H]1O [Tiamulin]
Conditions	minimum inhibitory concentration [µg/mL]
isolate (source animal id): 8	32 (≈ 64.8 µM)
isolate (source animal id): 9	> 32
isolate (source animal id): 10	> 32
isolate (source animal id): 11	> 32
isolate (source animal id): 12	> 32
isolate (source animal id): 13	> 32
isolate (source animal id): 14	> 32
isolate (source animal id): 15	> 32
isolate (source animal id): 16	> 32
isolate (source animal id): 98	> 32
isolate (source animal id): 99	> 32
isolate (source animal id): 100	32 (≈ 64.8 µM)
isolate (source animal id): 101	> 32
isolate (source animal id): 102	> 32
isolate (source animal id): 103	> 32
isolate (source animal id): 104	> 32
isolate (source animal id): 105	> 32
isolate (source animal id): 106	> 32
isolate (source animal id): 107	> 32
isolate (source animal id): 108	> 32
isolate (source animal id): 109	> 32
isolate (source animal id): 110	> 32
isolate (source animal id): 111	> 32
isolate (source animal id): 112	32 (≈ 64.8 µM)
isolate (source animal id): 113	> 32
isolate (source animal id): 114	> 32
isolate (source animal id): 115	> 32
isolate (source animal id): 116	32 (≈ 64.8 µM)
isolate (source animal id): 117	> 32
isolate (source animal id): 118	> 32
isolate (source animal id): 119	> 32
isolate (source animal id): 120	> 32
isolate (source animal id): 121	> 32
isolate (source animal id): 122	> 32
isolate (source animal id): 123	> 32
isolate (source animal id): 124	32 (≈ 64.8 µM)
isolate (source animal id): 125	16 (≈ 32.4 µM)
isolate (source animal id): 126	> 32
isolate (source animal id): 127	> 32
isolate (source animal id): 128	32 (≈ 64.8 µM)
isolate (source animal id): 129	32 (≈ 64.8 µM)
isolate (source animal id): 130	> 32
isolate (source animal id): 131	> 32
isolate (source animal id): 132	> 32
isolate (source animal id): 133	> 32
isolate (source animal id): 134	> 32
isolate (source animal id): 135	> 32
isolate (source animal id): 136	> 32
isolate (source animal id): 137	> 32
isolate (source animal id): 138	32 (≈ 64.8 µM)
isolate (source animal id): 139	> 32
isolate (source animal id): 140	> 32
isolate (source animal id): 141	> 32
isolate (source animal id): 142	> 32
isolate (source animal id): 143	> 32
isolate (source animal id): 144	> 32
isolate (source animal id): 145	> 32
isolate (source animal id): 146	> 32
isolate (source animal id): 147	32 (≈ 64.8 µM)
isolate (source animal id): 148	> 32
isolate (source animal id): 149	> 32
isolate (source animal id): 150	> 32
isolate (source animal id): 151	> 32
isolate (source animal id): 152	32 (≈ 64.8 µM)
isolate (source animal id): 153	> 32
isolate (source animal id): 154	> 32
isolate (source animal id): 155	32 (≈ 64.8 µM)
isolate (source animal id): 156	> 32
isolate (source animal id): 157	> 32
isolate (source animal id): 158	> 32
isolate (source animal id): 159	> 32
isolate (source animal id): 160	> 32
isolate (source animal id): 161	> 32
isolate (source animal id): 162	> 32
isolate (source animal id): 163	> 32
isolate (source animal id): 164	> 32
isolate (source animal id): 165	> 32
isolate (source animal id): 166	> 32
isolate (source animal id): 167	> 32
isolate (source animal id): 168	32 (≈ 64.8 µM)
isolate (source animal id): 169	> 32
isolate (source animal id): 170	32 (≈ 64.8 µM)
isolate (source animal id): 171	> 32
isolate (source animal id): 172	> 32
isolate (source animal id): 173	> 32
isolate (source animal id): 174	> 32
isolate (source animal id): 175	> 32
isolate (source animal id): 176	> 32
isolate (source animal id): 177	> 32
isolate (source animal id): 178	> 32
isolate (source animal id): 179	> 32
isolate (source animal id): 180	> 32
isolate (source animal id): 181	> 32
isolate (source animal id): 182	> 32
isolate (source animal id): 183	> 32
isolate (source animal id): 184	> 32
isolate (source animal id): 185	> 32
isolate (source animal id): 186	> 32
isolate (source animal id): 187	32 (≈ 64.8 µM)
isolate (source animal id): 188	> 32
